Values after ≈ are worked out from the molar mass of the structure shown.
Experiments:
Coxsackievirus B-2 = experiment: Plaque assay, minimal inhibitory concentration; assay type: cell-based; conditions: HeLa Cells, inhibiting virus plaque formation by 50%
Rhinovirus Serotype 5 = experiment: Plaque assay, minimal inhibitory concentration; assay type: cell-based; conditions: Enterovirus; HeLa Cells; inhibiting virus plaque formation by 50%
Coxsackievirus A-22 = experiment: Plaque assay, minimal inhibitory concentration; assay type: cell-based; conditions: HeLa Cells, inhibiting virus plaque formation by 50%
Rhinovirus strain 5 = experiment: Protection of tissue from cytopathic effects (plaque inhibition, filter paper disc or agar overlay); conditions: 33°, 3 to 5 days
Rhinovirus Serotype 3 = experiment: Plaque assay, minimal inhibitory concentration; assay type: cell-based; conditions: Enterovirus; HeLa Cells; inhibiting virus plaque formation by 50%
Rhinovirus strain 2 = experiment: Protection of tissue from cytopathic effects (plaque inhibition, filter paper disc or agar overlay); conditions: 33°, 3 to 5 days
Rhinovirus Serotype 50 = experiment: Plaque assay, minimal inhibitory concentration; assay type: cell-based; conditions: Enterovirus; HeLa Cells; inhibiting virus plaque formation by 50%
Rhinovirus Serotype 12 = experiment: Plaque assay, minimal inhibitory concentration; assay type: cell-based; conditions: Enterovirus; HeLa Cells; inhibiting virus plaque formation by 50%
[1] = tested on: rhinoviruses and other picornaviruses, including coxsackie and poliovirus; assay type: cell-based
rhinoviruses = experiment: Activity in three human epithelial cell lines; assay type: cell-based, rhinovirus; conditions: Hela, L-132 and Detroit-6
Rhinovirus Serotype 32 = experiment: Plaque assay, minimal inhibitory concentration; assay type: cell-based; conditions: Enterovirus; HeLa Cells; inhibiting virus plaque formation by 50%
Coxsackievirus A-5 = experiment: Plaque assay, minimal inhibitory concentration; assay type: cell-based; conditions: HeLa Cells, inhibiting virus plaque formation by 50%
Rhinovirus Serotype 23 = experiment: Plaque assay, minimal inhibitory concentration; assay type: cell-based; conditions: Enterovirus, inhibiting virus plaque formation by 50%
Rhinovirus Serotype 1A = experiment: Plaque assay, minimal inhibitory concentration; assay type: cell-based; conditions: Enterovirus; HeLa Cells; inhibiting virus plaque formation by 50%
Coxsackievirus B-5 = experiment: Plaque assay, minimal inhibitory concentration; assay type: cell-based; conditions: HeLa Cells, inhibiting virus plaque formation by 50%
Coxsackievirus B-1 = experiment: Plaque assay, minimal inhibitory concentration; assay type: cell-based; conditions: HeLa Cells, inhibiting virus plaque formation by 50%
rhinovirus 32 = experiment: Clinical challenge study, virus isolation from nasal washings; assay type: in vivo, human; conditions: individual subjects on medication, intranasal; + or 0
Rhinovirus Serotype 39 = experiment: Plaque assay, minimal inhibitory concentration; assay type: cell-based; conditions: Enterovirus; HeLa Cells; inhibiting virus plaque formation by 50%
Rhinovirus Serotype 1B = experiment: Virus Yield Reduction Test; assay type: cell-based; conditions: for Virus yield: HeLa
Rhinovirus strain 23 = experiment: Protection of tissue from cytopathic effects (plaque inhibition, filter paper disc or agar overlay); conditions: 33°, 3 to 5 days
Coxsackievirus A-15 = experiment: Plaque assay, minimal inhibitory concentration; assay type: cell-based; conditions: HeLa Cells, inhibiting virus plaque formation by 50%
Rhinovirus Type 30 = experiment: Viral sensitivity, filter disc method; assay type: cell-based; conditions: strain 106F; about 50 mcg per disc, HeLa
Experimental: (§1) In the test for viral sensitivity, by the filter disc method, 5 mg. of 1-(4-phenyl-2-thiazolyl)-3-phenylguanidine was dissolved in 1-2 drops of dimethylsulfoxide and 2.5 ml. of saline. Filter paper discs, when saturated with the solution, absorbed about 50 mcg. of the compound.
(§2) Sensitivity tests were performed by a modification of the method of Herrmann, et al., Proc. Soc. Exp. Biol. & Med., 103, 625 (1960). HeLa monolayers in 150 mm plastic dishes were infected with 1.0 ml. of rhinovirus suspension known to produce destruction of 80-90% of the cells in 4 to 5 days. Following viral adsorption, the cells were overlayed with 30 ml. of Eagle's minimum essential medium containing Noble agar at 0.5%, bovine fetal serum at 2.0%, diethylaminoethyl dextran at 100 mcg/ml. and magnesium chloride at 3 millimoles. Filter discs (1/4 inch Carl Schleicher and Schuell Co., No. 740E), containing about 50 mcg. of 1-(4-phenyl-2-thiazolyl)-3-phenylguanidine, were placed on the solidified surface and the culture plates incubated at 33° C. After 4 to 5 days, the overlay medium was decanted and the cells stained with 0.1% crystal violet in 20% ethanol. A zone of 10 mm or more in which at least two-thirds of the cells were protected from viral cytopathic effects, indicates antiviral activity. The following Table III lists 35 rhinovirus serotypes which were inhibited by this compound.

Rhinovirus Type 4 = experiment: Viral sensitivity, filter disc method; assay type: cell-based; conditions: strain 16/60; about 50 mcg per disc, HeLa
Experimental: as §1, §2

Rhinovirus Type 14 = experiment: Viral sensitivity, filter disc method; assay type: cell-based; conditions: strain 1059; about 50 mcg per disc, HeLa
Experimental: as §1, §2

Rhinovirus Type 36 = experiment: Viral sensitivity, filter disc method; assay type: cell-based; conditions: strain 342H; about 50 mcg per disc, HeLa
Experimental: as §1, §2

Rhinovirus Type 22 = experiment: Viral sensitivity, filter disc method; assay type: cell-based; conditions: strain 127CV22; about 50 mcg per disc, HeLa
Experimental: as §1, §2

Rhinovirus Type 52 = experiment: Viral sensitivity, filter disc method; assay type: cell-based; conditions: strain 515-CV34; about 50 mcg per disc, HeLa
Experimental: as §1, §2

Rhinovirus Type 10 = experiment: Viral sensitivity, filter disc method; assay type: cell-based; conditions: strain 204CV14; about 50 mcg per disc, HeLa
Experimental: as §1, §2

Rhinovirus Type 34 = experiment: Viral sensitivity, filter disc method; assay type: cell-based; conditions: strain 137-3; about 50 mcg per disc, HeLa
Experimental: as §1, §2

Rhinovirus Serotype 2 = experiment: Plaque assay, minimal inhibitory concentration; assay type: cell-based; conditions: Enterovirus, inhibiting virus plaque formation by 50%
Rhinovirus Serotype 20 = experiment: Plaque assay, minimal inhibitory concentration; assay type: cell-based; conditions: Enterovirus; HeLa Cells; inhibiting virus plaque formation by 50%

Structure (SMILES): N=C(Nc1ccccc1)Nc1nc(-c2ccccc2)cs1 [1-(4-phenyl-2-thiazolyl)-3-phenylguanidine]
- IC50 (Coxsackievirus B-2): 0.8 to 1.6 µg/mL (≈ 2.72 to 5.44 µM)
- IC50 (Rhinovirus Serotype 5): 0.4 to 0.8 µg/mL (≈ 1.36 to 2.72 µM)
- IC50 (Coxsackievirus A-22): 1.6 to 3.1 µg/mL (≈ 5.44 to 10.5 µM)
- Protection of tissue from destruction by virus (Rhinovirus strain 5): +
- IC50 (Rhinovirus Serotype 3): 0.4 to 0.8 µg/mL (≈ 1.36 to 2.72 µM)
- Protection of tissue from destruction by virus (Rhinovirus strain 2): +
- IC50 (Rhinovirus Serotype 50): 0.2 to 0.4 µg/mL (≈ 0.679 to 1.36 µM)
- IC50 (Rhinovirus Serotype 12): 0.2 to 0.4 µg/mL (≈ 0.679 to 1.36 µM)
- inhibition of virus growth ([1]; by inhibitory effects on virus plaque formation and virus yield): concentration-related inhibition
- activity against rhinoviruses and other picornaviruses ([1]; human cell cultures): active against a broad spectrum of rhinoviruses and other picornaviruses
- activity against rhinoviruses in three human epithelial cell lines (rhinoviruses): equally active
- IC50 (Rhinovirus Serotype 32): 0.4 µg/mL (≈ 1.36 µM)
- IC50 (Coxsackievirus A-5): 0.4 µg/mL (≈ 1.36 µM)
- IC50 (Rhinovirus Serotype 23; L132, L-132 Cells): 0.4 to 0.8 µg/mL (≈ 1.36 to 2.72 µM)
- IC50 (Rhinovirus Serotype 23; HeLa Cells): 0.2 to 0.4 µg/mL (≈ 0.679 to 1.36 µM)
- IC50 (Rhinovirus Serotype 1A): 0.2 to 0.4 µg/mL (≈ 0.679 to 1.36 µM)
- IC50 (Coxsackievirus B-5): 0.8 to 1.6 µg/mL (≈ 2.72 to 5.44 µM)
- IC50 (Coxsackievirus B-1): 1.6 to 3.1 µg/mL (≈ 5.44 to 10.5 µM)
- Virus Isolation From Nasal Washings (rhinovirus 32): 0
- IC50 (Rhinovirus Serotype 39): 0.4 µg/mL (≈ 1.36 µM)
- suppression of virus yield (Rhinovirus Serotype 1B; 24 hours, cultures treated with 0.4 to 0.8 mcg/ml): 1-2 logs
- Virus yield (Rhinovirus Serotype 1B; 0.4 mcg/ml, 0 Hour to +6 Hour, 24 Hours, no drug 7.0): 5.2 Plaque-Forming Units/ml. (Log
- Virus yield (Rhinovirus Serotype 1B; 0.4 mcg/ml, 0 Hour to +6 Hour, 48 Hours, no drug 7.0): 5.8 Plaque-Forming Units/ml. (Log
- Virus yield (Rhinovirus Serotype 1B; 0.4 mcg/ml, +1 Hour to +7 Hour, 24 Hours, no drug 7.0): 6.4 Plaque-Forming Units/ml. (Log
- Virus yield (Rhinovirus Serotype 1B; 0.4 mcg/ml, +1 Hour to +7 Hour, 48 Hours, no drug 7.2): 7.1 Plaque-Forming Units/ml. (Log
- Virus yield (Rhinovirus Serotype 1B; 0.8 mcg/ml, 0 Hour to +6 Hour, 24 Hours, no drug 7.0): 5.7 Plaque-Forming Units/ml. (Log
- Virus yield (Rhinovirus Serotype 1B; 0.8 mcg/ml, 0 Hour to +6 Hour, 48 Hours, no drug 7.0): 6.3 Plaque-Forming Units/ml. (Log
- Virus yield (Rhinovirus Serotype 1B; 0.8 mcg/ml, +1 Hour to +7 Hour, 24 Hours, no drug 7.0): 6.0 Plaque-Forming Units/ml. (Log
- Virus yield (Rhinovirus Serotype 1B; 0.8 mcg/ml, +1 Hour to +7 Hour, 48 Hours, no drug 7.2): 7.4 Plaque-Forming Units/ml. (Log
- Virus yield (Rhinovirus Serotype 1B; 1.6 mcg/ml, 0 Hour to +6 Hour, 24 Hours, no drug 7.0): 5.5 Plaque-Forming Units/ml. (Log
- Virus yield (Rhinovirus Serotype 1B; 1.6 mcg/ml, 0 Hour to +6 Hour, 48 Hours, no drug 7.0): 6.2 Plaque-Forming Units/ml. (Log
- Virus yield (Rhinovirus Serotype 1B; 1.6 mcg/ml, +1 Hour to +7 Hour, 24 Hours, no drug 7.0): 5.4 Plaque-Forming Units/ml. (Log
- Virus yield (Rhinovirus Serotype 1B; 1.6 mcg/ml, +1 Hour to +7 Hour, 48 Hours, no drug 7.2): 6.6 Plaque-Forming Units/ml. (Log
- Virus yield (Rhinovirus Serotype 1B; 3.1 mcg/ml, 0 Hour to +6 Hour, 24 Hours, no drug 7.0): 5.5 Plaque-Forming Units/ml. (Log
- Virus yield (Rhinovirus Serotype 1B; 3.1 mcg/ml, 0 Hour to +6 Hour, 48 Hours, no drug 7.0): 6.1 Plaque-Forming Units/ml. (Log
- Virus yield (Rhinovirus Serotype 1B; 3.1 mcg/ml, +1 Hour to +7 Hour, 24 Hours, no drug 7.0): 4.7 Plaque-Forming Units/ml. (Log
- Virus yield (Rhinovirus Serotype 1B; 3.1 mcg/ml, +1 Hour to +7 Hour, 48 Hours, no drug 7.2): 6.3 Plaque-Forming Units/ml. (Log
- Virus yield (Rhinovirus Serotype 1B; 6.2 mcg/ml, 0 Hour to +6 Hour, 24 Hours, no drug 7.0): 5.8 Plaque-Forming Units/ml. (Log
- Virus yield (Rhinovirus Serotype 1B; 6.2 mcg/ml, 0 Hour to +6 Hour, 48 Hours, no drug 7.0): 6.1 Plaque-Forming Units/ml. (Log
- Virus yield (Rhinovirus Serotype 1B; 6.2 mcg/ml, +1 Hour to +7 Hour, 24 Hours, no drug 7.0): 4.5 Plaque-Forming Units/ml. (Log
- Virus yield (Rhinovirus Serotype 1B; 6.2 mcg/ml, +1 Hour to +7 Hour, 48 Hours, no drug 7.2): 5.6 Plaque-Forming Units/ml. (Log
- Virus yield (Rhinovirus Serotype 1B; 12.5 mcg/ml, +1 Hour to +7 Hour, 24 Hours, no drug 7.0): 3.8 Plaque-Forming Units/ml. (Log
- Virus yield (Rhinovirus Serotype 1B; 12.5 mcg/ml, +1 Hour to +7 Hour, 48 Hours, no drug 7.2): 5.2 Plaque-Forming Units/ml. (Log
- Protection of tissue from destruction by virus (Rhinovirus strain 23): +
- IC50 (Coxsackievirus A-15): 1.6 to 3.1 µg/mL (≈ 5.44 to 10.5 µM)
- inhibition of rhinovirus serotype (zone of 10 mm or more) (Rhinovirus Type 30): inhibited
- inhibition of rhinovirus serotype (zone of 10 mm or more) (Rhinovirus Type 4): inhibited
- inhibition of rhinovirus serotype (zone of 10 mm or more) (Rhinovirus Type 14): inhibited
- inhibition of rhinovirus serotype (zone of 10 mm or more) (Rhinovirus Type 36): inhibited
- inhibition of rhinovirus serotype (zone of 10 mm or more) (Rhinovirus Type 22): inhibited
- inhibition of rhinovirus serotype (zone of 10 mm or more) (Rhinovirus Type 52): inhibited
- inhibition of rhinovirus serotype (zone of 10 mm or more) (Rhinovirus Type 10): inhibited
- inhibition of rhinovirus serotype (zone of 10 mm or more) (Rhinovirus Type 34): inhibited
- IC50 (Rhinovirus Serotype 2; L132, L-132 Cells): 0.4 to 0.8 µg/mL (≈ 1.36 to 2.72 µM)
- IC50 (Rhinovirus Serotype 2; Detroit-6 Cells): 0.4 µg/mL (≈ 1.36 µM)
- IC50 (Rhinovirus Serotype 2; HeLa Cells): 0.4 to 0.8 µg/mL (≈ 1.36 to 2.72 µM)
- IC50 (Rhinovirus Serotype 20): 0.4 µg/mL (≈ 1.36 µM)

Source: patent US4089965A, “Thiazolylphenylguanidines as antirhinovirus agents” (American Cyanamid Company, priority 1977, dated 1978)
